Data published in publication PMC12346198 (Cancers, 2025).
Like-named read-outs stand apart in the source and are kept apart here.

Assays:
[1] = Single-dose IV and PO pharmacokinetics in mice; format: in vivo, male C57BL/6 mice; details: for AUC: analyte = dosed compound; for Cmax: read-out: Cmax, Geo Mean; for Tmax: read-out: Tmax, Geo Mean
Description: The in-life study and quantitative analysis of plasma samples using LC/MS were performed at Charles River Laboratories, Inc. (Wilmington, MA, USA).

[2] = Thermodynamic solubility in fasted-state simulated intestinal fluid (FaSSIF); format: physicochemical; details: pH 6.5, LLOQ < 1.56 µM
Description: The thermodynamic solubility analysis in biological media and the quantitative analysis of samples were performed according to the standard protocol at WuXi AppTec (Shanghai, China).

[3] = Pharmacokinetic modeling of valine pro-drug conversion to parent; format: in vivo, mice
Excerpt: A total of 36 mice with available PK data were included for non-linear mixed-effects analysis using NONMEM (version 7.5.0, ICON Development Solutions, Ellicott City, MD, USA), implementing the first-order conditional estimation with interaction (FOCE-I). R (version 4.2.0, R Foundation for Statistical Computing, Vienna, AUT, http://www.r-project.org) was used for visual diagnostics. […] The analyte (valine conjugate and parent compound) plasma concentration–time data were confirmed to have a biphasic distribution and elimination and were therefore fit separately to a linear two-compartment model with a depot for oral administration. Each model was parametrized in terms of clearance (CL), the volume of distribution of the central compartment (V1), intercompartmental clearance (Q), and the volume of the peripheral compartment (V3). Interindividual variability (IIV) for each parameter was assumed to be log-normally distributed, and residual variability (RUV) was described with a proportional error model. The PK parameter estimates from these independent models (parent compound or valine conjugate) were used as initial estimates for a combined model describing the conversion and disposition of the valine conjugate to the parent drug and associated metabolites. The model estimated the fraction of pro-drug converted to parent drug (Fm), which was used to calculate the first-order rate constant of metabolite formation (Kmet) = Fm × Kel. This rate constant was used to calculate the half-life of the conversion process and the amount of metabolite formed at complete conversion. The rate of metabolite formation was then calculated as the ratio of the amount of metabolite formed to the time required for complete conversion (~5 half-lives), as detailed in Figures S8–S11.

[4] = PO, 40 mg/kg (valine conjugates 40 mg/kg EQV)

CC(C)[C@H](N)C(=O)Oc1ccc(Cl)cc1C(=O)Nc1ccc(C(F)(F)F)cc1 [valine–compound #11]
HL_Lambda_z, Geo Mean ([1]; IV, 2 mg/kg (valine conjugates 2 mg/kg EQV)): 1.94 h | IV: Clobs, Geo Mean ([1]; IV, 2 mg/kg (valine conjugates 2 mg/kg EQV), non-compartmental analysis): 0.004 L/h | HL_Lambda_z, Geo Mean [1, 4]: 5.77 h | PO: Cl_Fobs, Geo Mean [1, 4]: 0.59 L/h | AUC ([1]; male, C57BL/6, mouse, plasma, iv, 2 mg/kg, IV, 2 mg/kg (valine conjugates 2 mg/kg EQV), non-compartmental analysis, read-out: AUCall, Geo Mean): 36.1 µM·h | Cmax ([1]; male, C57BL/6, mouse, plasma, iv, 2 mg/kg, IV, 2 mg/kg (valine conjugates 2 mg/kg EQV)): 20.2 µM | AUC ([1]; male, C57BL/6, mouse, plasma, po, 40 mg/kg, PO, 40 mg/kg (valine conjugates 40 mg/kg EQV), non-compartmental analysis, read-out: AUCall, Geo Mean): 4.17 µM·h | Cmax ([1]; male, C57BL/6, mouse, plasma, po, 40 mg/kg, PO, 40 mg/kg (valine conjugates 40 mg/kg EQV)): 0.99 µM | AUC ([1]; male, C57BL/6, mouse, plasma, po, 40 mg/kg, single PO dose, 40 mg/kg or molar equivalent, read-out: AUCall following an oral dose): 4.17 µM·h | Tmax ([1]; male, C57BL/6, mouse, plasma, IV, 2 mg/kg (valine conjugates 2 mg/kg EQV)): 23.4 min | Tmax ([1]; male, C57BL/6, mouse, plasma, PO, 40 mg/kg (valine conjugates 40 mg/kg EQV)): 60 min | clearance ([1]; male, C57BL/6, mouse, plasma, single IV dose, 2 mg/kg or molar equivalent, read-out: Systemic clearance following an IV dose (converted)): 0.0667 mL/min | solubility thermodynamic [2]: < 1.56 µM | k el ([3]; C57BL/6, mouse, plasma, model estimate, read-out: Kel, elimination rate constant of valine conjugate (converted)): 0.00853 s⁻¹ | Kmet, rate constant of conversion to parent compound ([3]; Kmet = Fm × Kel): 11.9 h⁻¹ | Fraction of pro-drug converted to parent (Fm) ([3]; two-compartment model estimate): 39%
